Experimental data as given in patent USRE47689E1, “Compounds for treating spinal muscular atrophy” (PTC Therapeutics, Inc., priority 2011, dated 2019).

How the values were obtained:
[1] = tested on: SMN2 minigene (full length SMN2 minigene mRNA containing SMN2 exon 7); assay: SMN2 minigene mRNA splicing RT-qPCR assay in cultured cells; assay type: cell-based, human; details: Homo sapiens, HEK293-H; HEK293H cells stably transfected with SMN2-A minigene; 24 hours; 7-point concentration curve; 1.5-fold relative to vehicle-treated cells; read-out: EC1.5x for production of full length SMN2 mRNA
In short: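 Read-out: full-length (exon 7-included) SMN2 minigene mRNA by multiplex RT-qPCR with GAPDH, efficiency-corrected (1+E)^−Ct, GAPDH-normalized and divided by vehicle. Stably transfected HEK293H cells, 24 h compound exposure, duplicates per concentration. Value is EC1.5x, reported as star ranges.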

[2] = tested on: Smn protein; assay: Smn protein assay in cultured cells (SMN HTRF); assay type: cell-based, human; details: 48 hours; for EC1.5x (concentration giving 1.5-fold Smn protein increase): SMA Type 1 patient fibroblast cells (GM03813), 7-point concentration curve, SMN HTRF, concentration producing 1.5 times Smn protein vs DMSO vehicle control, read-out: EC1.5x for Smn protein expression; for maximum fold (Fold) increase of Smn protein: SMA patient fibroblast cells, 7-point concentration data, fold increase relative to vehicle control (SMN HTRF)
In short: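 Lysates in RIPA with protease inhibitors are incubated overnight at room temperature with HTRF anti-SMN antibodies. EC1.5x is derived from fold increase in ΔF over vehicle.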

| SMILES | EC (1.5-fold) [1] | melting point | EC1.5x (concentration giving 1.5-fold Smn protein increase) [2] | maximum fold (Fold) increase of Smn protein [2] |
| --- | --- | --- | --- | --- |
| CCN1CCN(c2ccc3cc(-c4cn5cc(C)ncc5n4)c(=O)oc3c2)C[C@@H]1C [Compound 627, 7-[(3S)-4-ethyl-3-methylpiperazin-1-yl]-3-(6-methylimidazo[1,2-a]pyrazin-2-yl)-2H-chromen-2-one] | < 0.1 µM | 205 to 208 °C | < 300 nM | ***** (fold increase >1.65) |
| Cc1cn2cc(-c3cc4ccc(N5CCN(C)[C@H](C)C5)cc4oc3=O)nc2cn1 [Compound 628, 7-[(3R)-3,4-dimethylpiperazin-1-yl]-3-(6-methylimidazo[1,2-a]pyrazin-2-yl)-2H-chromen-2-one] | < 0.1 µM | 256 to 258 °C | < 300 nM | **** (fold increase between >1.5 and ≤1.65) |
| Cc1ccc2nc(-c3cc4ccc(N5CCCNCC5)cc4oc3=O)cn2n1 [Compound 631, 7-(1,4-diazepan-1-yl)-3-(6-methylimidazo[1,2-b]pyridazin-2-yl)-2H-chromen-2-one] | 0.3 to 1 µM | 252 to 255 °C | – | * (maximum fold increase of ≤1.2) |
| Cc1cn2cc(-c3cc4ccc(N5CCN6CCC[C@@H]6C5)cc4oc3=O)nc2c(C)n1 [Compound 632, 3-(6,8-dimethylimidazo[1,2-a]pyrazin-2-yl)-7-[(8aR)-hexahydropyrrolo[1,2-a]pyrazin-2(1H)-yl]-2H-chromen-2-one] | < 0.1 µM | 255 to 258 °C | < 300 nM | ***** (fold increase >1.65) |
| Cc1cn2cc(-c3cc4ccc(N5CCN6CCCCC6C5)cc4oc3=O)nc2c(C)n1 (stereo not shown) [Compound 633, 3-(6,8-dimethylimidazo[1,2-a]pyrazin-2-yl)-7-(octahydro-2H-pyrido[1,2-a]pyrazin-2-yl)-2H-chromen-2-one] | < 0.1 µM | 225 to 227 °C | – | *** (fold increase between >1.35 and ≤1.5) |
| Cc1cn2cc(-c3cc4ccc(N5CCN6CCC[C@H]6C5)cc4oc3=O)nc2c(C)n1 [Compound 634, 3-(6,8-dimethylimidazo[1,2-a]pyrazin-2-yl)-7-[(8aS)-hexahydropyrrolo[1,2-a]pyrazin-2(1H)-yl]-2H-chromen-2-one] | < 0.1 µM | 261 to 263 °C | < 300 nM | ***** (fold increase >1.65) |
| Cc1cn2cc(-c3cc4ccc(N5CCN6CCCCC6C5)cc4oc3=O)nc2cn1 (stereo not shown) [Compound 635, 3-(6-methylimidazo[1,2-a]pyrazin-2-yl)-7-(octahydro-2H-pyrido[1,2-a]pyrazin-2-yl)-2H-chromen-2-one] | < 0.1 µM | 275 to 277 °C | < 300 nM | **** (fold increase between >1.5 and ≤1.65) |
| Cc1nccn2cc(-c3cc4ccc(N5CCN6CCC[C@@H]6C5)cc4oc3=O)cc12 [Compound 636, 7-[(8aR)-hexahydropyrrolo[1,2-a]pyrazin-2(1H)-yl]-3-(1-methylpyrrolo[1,2-a]pyrazin-7-yl)-2H-chromen-2-one] | < 0.1 µM | 170 to 173 °C | – | ** (fold increase between >1.2 and ≤1.35) |
| Cc1cn2cc(-c3cc4ccc(N5CCCNCC5)cc4oc3=O)cc2cn1 [Compound 638, 7-(1,4-diazepan-1-yl)-3-(3-methylpyrrolo[1,2-a]pyrazin-7-yl)-2H-chromen-2-one] | < 0.1 µM | 178 to 181 °C | < 300 nM | **** (fold increase between >1.5 and ≤1.65) |
| Cc1ccc2cc(-c3cc4ccc(N5C[C@@H](C)N[C@@H](C)C5)cc4oc3=O)cn2n1 [Compound 639, 7-[(3R,5S)-3,5-dimethylpiperazin-1-yl]-3-(2-methylpyrrolo[1,2-b]pyridazin-6-yl)-2H-chromen-2-one] | < 0.1 µM | 105 to 108 °C | – | * (maximum fold increase of ≤1.2) |
| CCN1CCN(c2ccc3cc(-c4cc5cnc(C)cn5c4)c(=O)oc3c2)CC1 [Compound 640, 7-(4-ethylpiperazin-1-yl)-3-(3-methylpyrrolo[1,2-a]pyrazin-7-yl)-2H-chromen-2-one] | < 0.1 µM | 208 to 210 °C | < 300 nM | **** (fold increase between >1.5 and ≤1.65) |
| Cc1nccn2cc(-c3cc4ccc(N5CCN6CCC[C@H]6C5)cc4oc3=O)cc12 [Compound 642, 7-[(8aS)-hexahydropyrrolo[1,2-a]pyrazin-2(1H)-yl]-3-(1-methylpyrrolo[1,2-a]pyrazin-7-yl)-2H-chromen-2-one] | < 0.1 µM | 175 to 178 °C | – | ** (fold increase between >1.2 and ≤1.35) |
| Cc1cn2cc(-c3cc4ccc(N5CCN6CCC[C@H]6C5)cc4oc3=O)cc2cn1 [Compound 643, 7-[(8aS)-hexahydropyrrolo[1,2-a]pyrazin-2(1H)-yl]-3-(3-methylpyrrolo[1,2-a]pyrazin-7-yl)-2H-chromen-2-one] | < 0.1 µM | 182 to 184 °C | < 300 nM | **** (fold increase between >1.5 and ≤1.65) |
| Cc1cn2cc(-c3cc4ccc(N5CCN(C)CC5)cc4oc3=O)cc2c(C)n1 [Compound 644, 3-(1,3-dimethylpyrrolo[1,2-a]pyrazin-7-yl)-7-(4-methylpiperazin-1-yl)-2H-chromen-2-one] | < 0.1 µM | 127 to 131 °C | < 300 nM | ***** (fold increase >1.65) |
| Cc1cn2cc(-c3cc4ccc(N5C[C@@H](C)N[C@@H](C)C5)cc4oc3=O)cc2c(C)n1 [Compound 645, 7-[(3R,5S)-3,5-dimethylpiperazin-1-yl]-3-(1,3-dimethylpyrrolo[1,2-a]pyrazin-7-yl)-2H-chromen-2-one] | < 0.1 µM | 170 to 173 °C | < 300 nM | ***** (fold increase >1.65) |
| Cc1cn2cc(-c3cc4ccc(N5CCN6CCCCC6C5)cc4oc3=O)cc2cn1 (stereo not shown) [Compound 646, 3-(3-methylpyrrolo[1,2-a]pyrazin-7-yl)-7-(octahydro-2H-pyrido[1,2-a]pyrazin-2-yl)-2H-chromen-2-one] | < 0.1 µM | 218 to 221 °C | < 300 nM | **** (fold increase between >1.5 and ≤1.65) |
| Cc1cn2cc(-c3cc4ccc(N5CCN[C@@H](C)C5)cc4oc3=O)cc2cn1 [Compound 647, 7-[(3S)-3-methylpiperazin-1-yl]-3-(3-methylpyrrolo[1,2-a]pyrazin-7-yl)-2H-chromen-2-one] | < 0.1 µM | 202 to 204 °C | < 300 nM | **** (fold increase between >1.5 and ≤1.65) |
| Cc1cn2cc(-c3cc4ccc(N5CCN6CCC[C@H]6C5)cc4oc3=O)cnc2n1 [Compound 649, 7-[(8aS)-hexahydropyrrolo[1,2-a]pyrazin-2(1H)-yl]-3-(2-methylimidazo[1,2-a]pyrimidin-6-yl)-2H-chromen-2-one] | 0.1 to 0.3 µM | 295 to 297 °C | 300 to 1000 nM | ***** (fold increase >1.65) |
| Cc1cn2cc(-c3cc4ccc(N5CCCN(C)CC5)cc4oc3=O)ccc2n1 [Compound 653, 7-(4-methyl-1,4-diazepan-1-yl)-3-(2-methylimidazo[1,2-a]pyridin-6-yl)-2H-chromen-2-one] | 0.1 to 0.3 µM | 175 to 178 °C | – | *** (fold increase between >1.35 and ≤1.5) |
| Cc1cn2cc(-c3cc4ccc(N5CCN(CCO)CC5)cc4oc3=O)nc2c(C)n1 [Compound 654, 3-(6,8-dimethylimidazo[1,2-a]pyrazin-2-yl)-7-[4-(2-hydroxyethyl)piperazin-1-yl]-2H-chromen-2-one] | < 0.1 µM | 231 to 233 °C | < 300 nM | **** (fold increase between >1.5 and ≤1.65) |
| Cc1cn2cc(-c3cc4ccc(N5C[C@H]6CCCN[C@H]6C5)cc4oc3=O)nc2c(C)n1 [Compound 655, 3-(6,8-dimethylimidazo[1,2-a]pyrazin-2-yl)-7-[(4aR,7aR)-octahydro-6H-pyrrolo[3,4-b]pyridin-6-yl]-2H-chromen-2-one] | < 0.1 µM | 259 to 269 °C | < 300 nM | **** (fold increase between >1.5 and ≤1.65) |
| Cc1cn2cc(-c3cc4ccc(N(C)[C@H]5CCN(C)C5)cc4oc3=O)nc2c(C)n1 [Compound 656, 3-(6,8-dimethylimidazo[1,2-a]pyrazin-2-yl)-7-{methyl[(3S)-1-methylpyrrolidin-3-yl]amino}-2H-chromen-2-one] | < 0.1 µM | 178 to 184 °C | < 300 nM | ***** (fold increase >1.65) |
